{"source": "patent US20250122193A1", "about": "“NOVEL PYRIDOCARBAZOLIUM COMPOUNDS AND MEDICAL USES THEREOF” (MyCural Therapeutics, priority 2021, published 2025)", "key": {"[1]": {"tested_on": "Purified AML cells from spleens of moribund mice", "test": "purified MYC/BCL-XL AML cells in culture", "settings": "Mus musculus"}, "[2]": {"tested_on": "immortalized Rat1 fibroblasts with different MYC status", "test": "apoptosis assay (Cell Death Detection ELISA), Rat1 fibroblasts", "assay_type": "cell-based, rat", "settings": "24 hours", "experimental": "FIG. 4: MYCMI-7 induces apoptosis in malignant cells and growth arrest in normal cells. A) Cell cycle distribution analysis by flow cytometry of MYC-regulated P493-6 cells and normal rat embryo fibroblasts (REFs). Left panel, P493-6 synchronized in G0 by 24 hours treatment of […] doxycycline. Doxycycline was removed and the cells were harvested 48 hours after the addition of fresh medium containing DMSO or 5 μM MYCMI-7. Right panel, flow cytometry analysis of normal REFs treated with DMSO or 5 μM MYCMI-7. B) Apoptosis assay using the Cell Death Detection ELISA^plus kit. Left panel, immortalized Rat1 fibroblasts with different MYC status after 24 hours of 5 μM MYCMI-7 treatment, middle panel and right panels, normal REFs and normal peripheral blood lymphocytes, respectively, after 24 and 48 hours of 5 μM MYCMI-7 treatment. C) Measurement of viability and apoptosis by Apo-Tox Glo Triplex assay in A375 melanoma cells after 3 days of treatment with MYCMI-7 with the indicated concentrations. […] E) NHDFs treated with 3 μM MYCMI-7 for 72 hrs. Viability was measured by trypan blue exclusion assay. F) Cell growth measured with Cyt62 assay of primary normal human epidermal melanocytes (NHEM) treated for 72 hours with MYCMI-7, G) Viability measured by trypan blue exclusion assay of NHEM after treatment for 72 hours with MYCMI-7."}, "ODC1 expression": {"tested_on": "ODC1 expression", "test": "MYC target gene ODC1 expression by qPCR", "assay_type": "cell-based", "settings": "5 μM", "experimental": "FIG. 1: MYCMI-7 (Compound Example 1) inhibits the MYC:MAX interaction in cells, bind MYC in vitro, and blocks MYC function. A) Molecular structure of MYCMI-7. B-E) split Gaussia luciferase (GLuc) assay. MYC or MYCN and MAX Gluc constructs were co-transfected into HeLa cells together with a firefly luciferase vector. 24 hours post transfection cells were treated with compounds, and after another 17-24 hours cells were harvested and both GLuc and firefly luciferase activities were measured. The mean of three different experiments is shown. Treatment with: B) 5 μM of MYCMI-7, 64 μM 10058-F4 or 5 μM JQ1, respectively, C) 6.5 μM MYCMI-7 on cells expressing MYC:MAX GLuc vs. GCN4:GCN4 GLuc, D) 5 μM MYCMI-7 and 5 μM ellipticine. E) 5 μM MYCMI-7 for various time points. F) in situ proximity ligation assay (isPLA). […] MYC:GAL4 was used as negative control in the isPLA assay. G) Quantification of isPLA dots. (H) Co-immunoprecipitation (co-IP) of endogenous MYC and MAX proteins from MCF7 cells after treatment with 5 μM MYCMI-7 at various times. IP=immunoprecipitation; W=western blot. […] J) MYC target gene ODC1 expression after treatment with 5 μM MYCMI-7, quantified by qPCR. […] L) Recombinant MYC bHLHZip protein domain immobilized onto a CM5 chip was subjected to various concentrations of MYCMI-7 and the complex of MYCbHLHZip-MYCMI-7 was measured as response units by SPR. […]"}, "[3]": {"tested_on": "SKN-DZ neuroblastoma cells with MYCN-amplification", "test": "3D colony formation in agarose, SK-N-DZ", "assay_type": "cell-based", "settings": "3D cultures, 2 weeks", "quoted_text": "C) 3D cultures of SKN-DZ neuroblastoma cells with MYCN-amplification exposed to indicated concentrations of MYCMI-7 for 2 weeks. Colony formation in agarose was detected by MTT staining and quantified.\nFor anchorage-independent growth assay, cells were suspended in 250 μl 0.35% SeaPlaque agarose (InVitro) and seeded into 24 well plates which had previously been coated with a bottom layer of 250 μl 0.7% agarose. After 16 days, the colonies were stained with 100 μg/ml MTT (Sigma) overnight and colonies were counted."}, "p53 expression": {"tested_on": "p53 expression", "test": "p53 expression by western blot", "assay_type": "cell-based", "settings": "5 μM, HCT116 and Kelly cells", "experimental": "A) Measurement of MYC mRNA expression by RTqPCR after treatment with MYCMI-7 and different topoisomerase inhibitors at indicated concentrations. […] D) Western blot analysis of p53 and p21 expression after exposure to 5 μM MYCMI-7, ellipticine or camptothecin (CPT) in HCT116 cells. E) Western blot analysis of phospho-ATM, total ATM and p53 expression after exposure to indicated concentrations of MYCMI-7 and ellipticine in A375 cells after 3 hrs treatment.\nFor western blot equal amounts of proteins ([…]) were separated on a 4-12% SDS-PAGE gel. Proteins were transferred to Immobilion-P membrane (Millipore) and detected by immunostaining and chemoluminescence (Immobilion western HRP substrate; Millipore). For immunoprecipitations 500-1000 μg of protein was used. […] Briefly, cells were crosslinked with 1% formaldehyde on ice for 6 minutes. Nuclear chromatin was sonicated on ice to fragments from 0.3 kb to 0.5 kb. Nuclear chromatin equivalent to 2.5×10^7 cells was immunoprecipitated with 2 μg antibody."}, "HCT116-TIR-AID cells": {"tested_on": "HCT116-TIR-AID cells", "test": "auxin-induced TOP2A depletion in HCT116 cells", "assay_type": "cell-based"}, "[4]": {"test": "oxidative metabolism in human liver microsomes", "text": "First, we performed a pharmacokinetic study of the behavior of the molecule in mice."}}}
{"smiles": "CCN(CC)CC[n+]1ccc2c(C)c3[nH]c4ccccc4c3c(C)c2c1", "note": "[MYCMI-7, 2-(5,11-Dimethyl-6H-25-pyrido[4,3-b]carbazol-2-yl)-N,N-diethylethanamine bromide]", "values": [{"measurement": "GI50", "setting": "[1]", "value": "< 1000", "unit": "nM"}, {"measurement": "apoptosis", "setting": "[2]; MYC knockout HO15.19, 5 μM", "value": "not"}, {"measurement": "apoptosis", "setting": "[2]; TGR1 and HOMyc3, 5 μM", "value": "induced apoptosis"}, {"measurement": "ODC1 expression", "setting": "ODC1 expression", "value": "reduced ODC1 expression"}, {"measurement": "GI50", "setting": "[3]", "value": "nanomolar range"}, {"measurement": "p53 expression", "setting": "p53 expression; early (3 hrs)", "value": "no effect"}, {"measurement": "p53 expression", "setting": "p53 expression; late (24 hrs)", "value": "only a minor increase"}, {"measurement": "effect of TOP2A depletion on sensitivity to MYCMI-7 (resazurin assay)", "setting": "HCT116-TIR-AID cells; auxin-induced depletion", "value": "does not affect"}, {"measurement": "effect of TOP2A depletion on MYCMI-7-induced inhibition of MYC:MAX interactions (isPLA)", "setting": "HCT116-TIR-AID cells; pre-treatment with auxin", "value": "no effect"}, {"measurement": "stability against oxidative metabolism", "setting": "[4]", "value": "stable"}]}
